According to patent publication US11746100B2 (GLOBAL BLOOD THERAPEUTICS, INC., priority 2020, dated 2023):

Target: T1, human ferroportin (Homo sapiens, UniProt Q9NP59)
T1 construct: luciferase reporter (read with the Nano-Glo Luciferase Assay System); expressed in transfected cells; host or cells: CHO cells, stably transfected, expression induced with doxycycline
T1 sequence (Q9NP59 1-571): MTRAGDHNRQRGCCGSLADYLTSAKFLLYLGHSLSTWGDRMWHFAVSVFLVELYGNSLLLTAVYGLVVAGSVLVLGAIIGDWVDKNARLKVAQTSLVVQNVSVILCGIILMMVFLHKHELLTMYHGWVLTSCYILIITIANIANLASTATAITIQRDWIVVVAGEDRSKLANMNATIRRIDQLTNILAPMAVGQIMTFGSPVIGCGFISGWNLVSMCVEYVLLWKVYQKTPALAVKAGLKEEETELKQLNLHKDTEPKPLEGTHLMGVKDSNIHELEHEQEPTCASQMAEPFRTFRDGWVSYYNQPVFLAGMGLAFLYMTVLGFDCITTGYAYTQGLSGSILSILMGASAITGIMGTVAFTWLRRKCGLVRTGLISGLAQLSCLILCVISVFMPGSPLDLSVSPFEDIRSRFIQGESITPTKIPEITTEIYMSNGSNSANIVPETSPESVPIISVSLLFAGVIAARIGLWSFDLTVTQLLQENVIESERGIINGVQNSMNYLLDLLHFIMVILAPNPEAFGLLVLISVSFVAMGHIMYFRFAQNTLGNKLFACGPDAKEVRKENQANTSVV
Test: Biological in-vitro ferroportin internalization assay (luciferase reporter)
Type: cell-based
Details: average pEC50; stably-transfected CHO cell line expressing human ferroportin tagged to a luciferase reporter; 6 h incubation with test compound
Method in brief: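 Read-out is Nano-Glo luciferase signal after 6 h compound exposure, with average pEC50 derived. Cells are a stable CHO line carrying luciferase-tagged human ferroportin, pre-loaded 24 h with ferric ammonium citrate and doxycycline-induced for 24 h.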

Row | pEC50 | SMILES
1 | 8.3 | CN(CC(=O)NC(C)(C)C)c1nc(-c2cc(OC(C)(C)CO)ccn2)nc2c1CCC2 [Compound 425, N-tert-butyl-2-[(2-{4-[(1-hydroxy-2-methylpropan-2-yl)oxy]pyridin-2-yl}-5H,6H,7H-cyclopenta[d]pyrimidin-4-yl)(methyl)amino]acetamide]
2 | 7.5 | CC(C)NC(=O)CN(C)c1nc(-c2cc(OCCN(C)C)ccn2)nc2c1CCC2 [Compound 428, 2-[(2-{4-[2-(dimethylamino)ethoxy]pyridin-2-yl}-5H,6H,7H-cyclopenta[d]pyrimidin-4-yl)(methyl)amino]-N-(propan-2-yl)acetamide]
3 | 7.5 | CC(C)NC(=O)CN(C)c1nc(-c2cc(OCCN3CCN(C)CC3)ccn2)nc2c1CCC2 [Compound 432, 2-[methyl(2-{4-[2-(4-methylpiperazin-1-yl)ethoxy]pyridin-2-yl}-5H,6H,7H-cyclopenta[d]pyrimidin-4-yl)amino]-N-(propan-2-yl)acetamide]
4 | 8.0 | CC(C)NC(=O)[C@@H](C)N(C)c1nc(-c2cc(OCCN(C)C)ccn2)nc2c1CCC2 [Compound 433, (2R)-2-[(2-{4-[2-(dimethylamino)ethoxy]pyridin-2-yl}-5H,6H,7H-cyclopenta[d]pyrimidin-4-yl)(methyl)amino]-N-(propan-2-yl)propanamide]
5 | 7.3 | CC(C)NC(=O)CN(C)c1nc(-c2cc(OCCN3CCOCC3=O)ccn2)nc2c1CCC2 [Compound 436, 2-[methyl(2-{4-[2-(3-oxomorpholin-4-yl)ethoxy]pyridin-2-yl}-5H,6H,7H-cyclopenta[d]pyrimidin-4-yl)amino]-N-(propan-2-yl)acetamide]
6 | 7.8 | CC(C)NC(=O)CN(C)c1nc(-c2cc(OCC(C)(C)O)ccn2)nc2c1C(C)(C)CC2 [Compound 439, 2-({2-[4-(2-hydroxy-2-methylpropoxy)pyridin-2-yl]-5,5-dimethyl-5H,6H,7H-cyclopenta[d]pyrimidin-4-yl}(methyl)amino)-N-(propan-2-yl)acetamide]
7 | 8 | Cc1cc(OCC(C)(C)O)cc(-c2nc3c(c(N(C)CC(=O)NC(C)(C)C)n2)CCC3)n1 [Compound 440, N-tert-butyl-2-({2-[4-(2-hydroxy-2-methylpropoxy)-6-methylpyridin-2-yl]-5H,6H,7H-cyclopenta[d]pyrimidin-4-yl}(methyl)amino)acetamide]
8 | 6.4 | CC(C)NC(=O)CN(C)c1nc(-c2cc(OCC(C)(C)O)ccn2)nc2c1CCC2(C)C [Compound 450, 2-({2-[4-(2-hydroxy-2-methylpropoxy)pyridin-2-yl]-7,7-dimethyl-5H,6H,7H-cyclopenta[d]pyrimidin-4-yl}(methyl)amino)-N-(propan-2-yl)acetamide]

Continued, compound first:

Row | SMILES | pEC50
9 | CN(C)CCOc1ccnc(-c2nc3c(c(N(C)CC(=O)N[C@@H]4CCOC4)n2)CCC3)c1 [Compound 424, 2-[(2-{4-[2-(dimethylamino)ethoxy]pyridin-2-yl}-5H,6H,7H-cyclopenta[d]pyrimidin-4-yl)(methyl)amino]-N-[(3R)-oxolan-3-yl]acetamide] | 7
10 | CN(CC(=O)NC(C)(C)C)c1nc(-c2cc(OCC(O)C(F)(F)F)ccn2)nc2c1CCC2 (stereo not drawn) [Compound 426, N-tert-butyl-2-[methyl({2-[4-(3,3,3-trifluoro-2-hydroxypropoxy)pyridin-2-yl]-5H,6H,7H-cyclopenta[d]pyrimidin-4-yl})amino]acetamide] | 8.4
11 | Cc1cc(OCCO)cc(-c2nc3c(c(N(C)CC(=O)NC(C)(C)C)n2)CCC3)n1 [Compound 427, N-tert-butyl-2-({2-[4-(2-hydroxyethoxy)-6-methylpyridin-2-yl]-5H,6H,7H-cyclopenta[d]pyrimidin-4-yl}(methyl)amino)acetamide] | 7.6
12 | CC(C)NC(=O)CN(C)c1nc(-c2cc(OCCN3CCCC3)ccn2)nc2c1CCC2 [Compound 429, 2-[methyl(2-{4-[2-(pyrrolidin-1-yl)ethoxy]pyridin-2-yl}-5H,6H,7H-cyclopenta[d]pyrimidin-4-yl)amino]-N-(propan-2-yl)acetamide] | 8
13 | CC(C)NC(=O)CN(C)c1nc(-c2cc(OCCN3CCOCC3)ccn2)nc2c1CCC2 [Compound 430, 2-[methyl(2-{4-[2-(morpholin-4-yl)ethoxy]pyridin-2-yl}-5H,6H,7H-cyclopenta[d]pyrimidin-4-yl)amino]-N-(propan-2-yl)acetamide] | 8
14 | CC(C)NC(=O)CN(C)c1nc(-c2cc(OCC3(O)CC3)ccn2)nc2c1CCC2 [Compound 431, 2-[(2-{4-[(1-hydroxycyclopropyl)methoxy]pyridin-2-yl}-5H,6H,7H-cyclopenta[d]pyrimidin-4-yl)(methyl)amino]-N-(propan-2-yl)acetamide] | 7.4
15 | CC(C)NC(=O)[C@H](C)N(C)c1nc(-c2cc(OCCN(C)C)ccn2)nc2c1CCC2 [Compound 434, (2S)-2-[(2-{4-[2-(dimethylamino)ethoxy]pyridin-2-yl}-5H,6H,7H-cyclopenta[d]pyrimidin-4-yl)(methyl)amino]-N-(propan-2-yl)propanamide] | 7.4
16 | CC(C)NC(=O)CN(C)c1nc(-c2cc(OCCN(C)C)ccn2)nc2c1C(C)(C)CC2 [Compound 435, 2-[(2-{4-[2-(dimethylamino)ethoxy]pyridin-2-yl}-5,5-dimethyl-5H,6H,7H-cyclopenta[d]pyrimidin-4-yl)(methyl)amino]-N-(propan-2-yl)acetamide] | 7.8
17 | CN1CC[C@@H](Oc2ccnc(-c3nc4c(c(N(C)CC(=O)NC(C)(C)C)n3)CCC4)c2)C1 [Compound 437, N-tert-butyl-2-{methyl[2-(4-{[(3R)-1-methylpyrrolidin-3-yl]oxy}pyridin-2-yl)-5H,6H,7H-cyclopenta[d]pyrimidin-4-yl]amino}acetamide] | 8.0
18 | CN1CC[C@H](Oc2ccnc(-c3nc4c(c(N(C)CC(=O)NC(C)(C)C)n3)CCC4)c2)C1 [Compound 438, N-tert-butyl-2-{methyl[2-(4-{[(3S)-1-methylpyrrolidin-3-yl]oxy}pyridin-2-yl)-5H,6H,7H-cyclopenta[d]pyrimidin-4-yl]amino}acetamide] | 7.7
19 | CCNC(=O)CN(C)c1nc(-c2cc(OCC3(O)CC3)ccn2)nc2c1CCC2 [Compound 441, N-ethyl-2-[(2-{4-[(1-hydroxycyclopropyl)methoxy]pyridin-2-yl}-5H,6H,7H-cyclopenta[d]pyrimidin-4-yl)(methyl)amino]acetamide] | 7.5
20 | CCNC(=O)CN(C)c1nc(-c2cc(OCC(O)(CC)CC)ccn2)nc2c1CCC2 [Compound 442, N-ethyl-2-({2-[4-(2-ethyl-2-hydroxybutoxy)pyridin-2-yl]-5H,6H,7H-cyclopenta[d]pyrimidin-4-yl}(methyl)amino)acetamide] | 8
21 | CCC(O)(CC)COc1ccnc(-c2nc3c(c(N(C)CC(=O)NC)n2)CCC3)c1 [Compound 443, 2-({2-[4-(2-ethyl-2-hydroxybutoxy)pyridin-2-yl]-5H,6H,7H-cyclopenta[d]pyrimidin-4-yl}(methyl)amino)-N-methylacetamide] | 7.8
22 | CC(C)NC(=O)CN(C)c1nc(-c2cc(OCC3(O)CCOCC3)ccn2)nc2c1CCC2 [Compound 444, 2-[(2-{4-[(4-hydroxyoxan-4-yl)methoxy]pyridin-2-yl}-5H,6H,7H-cyclopenta[d]pyrimidin-4-yl)(methyl)amino]-N-(propan-2-yl)acetamide] | 7.9
23 | CC[C@@](C)(O)COc1ccnc(-c2nc3c(c(N(C)CC(=O)NC(C)(C)C)n2)CCC3)c1 [Compound 445, N-tert-butyl-2-[(2-{4-[(2R)-2-hydroxy-2-methylbutoxy]pyridin-2-yl}-5H,6H,7H-cyclopenta[d]pyrimidin-4-yl)(methyl)amino]acetamide] | 8.3
24 | CCNC(=O)CN(C)c1nc(-c2cc(OCC3(O)CCOCC3)ccn2)nc2c1CCC2 [Compound 447, N-ethyl-2-[(2-{4-[(4-hydroxyoxan-4-yl)methoxy]pyridin-2-yl}-5H,6H,7H-cyclopenta[d]pyrimidin-4-yl)(methyl)amino]acetamide] | 7.6
25 | COC[C@@H](O)COc1ccnc(-c2nc3c(c(N(C)CC(=O)NC(C)C)n2)CCC3)c1 [Compound 448, 2-[(2-{4-[(2R)-2-hydroxy-3-methoxypropoxy]pyridin-2-yl}-5H,6H,7H-cyclopenta[d]pyrimidin-4-yl)(methyl)amino]-N-(propan-2-yl)acetamide] | 7.4
26 | CC(C)NC(=O)CN(C)c1nc(-c2cc(OCC(C)(C)O)ccn2)nc2c1CC(C)(C)C2 [Compound 449, 2-({2-[4-(2-hydroxy-2-methylpropoxy)pyridin-2-yl]-6,6-dimethyl-5H,6H,7H-cyclopenta[d]pyrimidin-4-yl}(methyl)amino)-N-(propan-2-yl)acetamide] | 7.2
27 | CN(CC(=O)NC(C)(C)C)c1nc(-c2cc(OC[C@@H](O)CO)ccn2)nc2c1CCC2 [Compound 451, N-tert-butyl-2-[(2-{4-[(2S)-2,3-dihydroxypropoxy]pyridin-2-yl}-5H,6H,7H-cyclopenta[d]pyrimidin-4-yl)(methyl)amino]acetamide] | 7.8
